Assay results reported in patent publication US12162857B2, “Antiviral compounds” (priority 2022, dated 2024).

tested on: HMPV A2 TN/94-49; assay: HMPV antiviral assay: LLC-MK2 cells, ATP-Lite readout; format: cell-based; settings: LLC-MK2, 168 h, MOI 0.005, 7 days incubation
Outline: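 LLC-MK2 cells (5,000/well) were infected in suspension with HMPV A2 TN/94-49 at MOI 0.005 in serum-free OptiMEM with 2 μg/mL final TPCK-trypsin, then incubated for 7 days at 37 °C. Compounds were tested in duplicate from 2 μM in 10-point 2.5-fold dilutions. ATP-Lite luminescence, normalised to virus-only and cells-only controls as % cell health, gave EC50 by four-parameter fit.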

EC50 [nM] | SMILES
< 1000 | COc1cc(C(=O)NC[C@@](O)(c2ccccc2)c2cc(C(C)(C)O)c(F)c(-c3ccc4c(c3Cl)OC(F)(F)O4)n2)cc2cn(C3CC3)nc12 [Example 74]
> 1000 | COc1cc(C(=O)NC[C@](O)(c2cc(C3(C(N)=O)CC3)cc(-c3ccc(F)c(Cl)c3F)n2)C2CC2)cc2cn(C3CC3)nc12 (single isomer, unassigned) [Example 26]
< 1000 | COc1cc(C(=O)NC[C@@](O)(c2ccccc2)c2nc(-c3cc(Cl)c(F)cc3F)c(F)c(C(C)(C)O)c2F)cc2cn(C3CC3)nc12 [Example 127]
> 1000 | CC(C)(O)c1cc([C@@](O)(CNC(=O)c2cc(F)c3nn(C(F)F)cc3c2)C2CC2)nc(-c2ccc(F)cc2)c1F (single isomer, unassigned) [Example 7]
< 1000 | [2H]C([2H])([2H])C(O)(c1cc([C@@](O)(CNC(=O)c2cc(OC)c3nn(C4CC4)cc3c2)c2ccccc2)nc(-c2cc(Cl)c(F)cc2F)c1F)C([2H])([2H])[2H] [Example 183]
< 1000 | COc1cc(C(=O)NC[C@@](O)(c2ccccc2)c2cc(C(C)(C)O)c(F)c(-c3ccc(F)c(Cl)c3F)n2)cc2cn(C3CC3)nc12 [Example 123]
< 1000 | COc1cc(C(=O)NC[C@@](O)(c2ccccc2)c2cc(C(C)(C)O)c(Cl)c(-c3ccc4c(c3Cl)OC(F)(F)O4)n2)cc2cn(C3CC3)nc12 [Example 136]
> 1000 | COc1cc(C(=O)NC[C@](O)(c2cc(C(C)(C)F)c(F)c(-c3cc(Cl)c(F)cc3F)n2)C2CC2)cc2cn(C3CC3)nc12 [Example 177]
> 1000 | COc1cc(C(=O)NC[C@](O)(c2cc(C3(O)CC3)c(F)c(-c3ccc(F)cc3)n2)C2CC2)cc2cn(C3CC3)nc12 (single isomer, unassigned) [Example 50]
< 1000 | CC(C)(O)c1cc([C@@](O)(CNC(=O)c2cc(Cl)c3nn(C4CC4)cc3c2)C2CC2)nc(-c2ccc(F)cc2)c1F [Example 6]
< 1000 | COc1cc(C(=O)NC[C@](O)(c2cc(C(C)(C)O)c(F)c(-c3ccc(F)cc3)n2)C2CC2)cc2cc(C3CC3)nn12 (single isomer, unassigned) [Example 8]
> 1000 | COc1cc(C(=O)NC[C@@](O)(c2ccccc2)c2cc(C(N)=O)c(F)c(-c3cc(Cl)c(F)cc3F)n2)cc2cn(C3CC3)nc12 [Example 189]
> 1000 | Cc1nc2c(OC3CC3)cc(C(=O)NC[C@](O)(c3cc(C4(O)CC4)c(F)c(-c4ccc(F)cc4)n3)C3CC3)cc2cc1Cl (single isomer, unassigned) [Example 49]
> 1000 | Cc1nc2c(OC(F)F)cc(C(=O)NC[C@](O)(c3cc(C(C)(C)O)c(F)c(-c4cc(Cl)c(F)cc4F)n3)C3CC3)cc2cc1Br [Example 59]
< 1000 | [2H]C([2H])([2H])C(O)(c1cc([C@@](O)(CNC(=O)c2cc(OC)n3nc(C4CC4)cc3c2)c2ccccc2)nc(-c2cc(Cl)c(F)cc2F)c1F)C([2H])([2H])[2H] [Example 184]
> 1000 | COc1cc(C(=O)NC[C@@](O)(c2ccccc2)c2cc(C(C)(C)O)c(F)c(-c3cc(F)c(F)cc3F)n2)cc2cn(C3CC3)nc12 [Example 86]
> 1000 | COc1cc(C(=O)NC[C@](O)(c2cc(C3(C(N)=O)CC3)c(F)c(-c3ccc(F)c(Cl)c3F)n2)C2CC2)cc2cc(Cl)c(C)nc12 (single isomer, unassigned) [Example 23]
> 1000 | COc1cc(C(=O)NC[C@](O)(c2cc(C3(C#N)CC3)c(F)c(-c3cc(Cl)c(F)cc3F)n2)C2CC2)cc2cn(C(F)F)nc12 [Example 10]

tested on: Human RSV-A (“Long” strain); assay: RSV-A assay: CPE in Hep-2 cells, ATPlite readout; format: cell-based; settings: human respiratory syncytial virus, 120 h, MOI 0.1, 5-day incubation
Text: Hep-2 cells, (originally derived from tumors grown in irradiated-cortisonised weanling rats that had been injected with epidermoid carcinoma tissue from a person's larynx, but later found to be indistinguishable from HeLa cells by PCR DNA analysis), were used for the culturing of genotype A, “Long” strain RSV. Flasks were inoculated with RSV and viral stocks were collected once cytopathic effect (CPE) was greater than 90%. Viral stocks in 25% sucrose media were snap frozen using liquid nitrogen to increase viral stability. Viral stock titers were quantified by tissue culture infectious dose 50% (TCID50) using 8,000 cells per well and 3-fold viral dilutions across a 96-well plate, cultured for 4 days. Viral stock titers were also quantified by a plaque forming unit assay, as described elsewhere.
Following extensive parameter testing, the final assay is run as follows: Hep-2 cells are seeded into the inner 60 wells of a 96-well plate at 8,000 cells per well in a volume of 50 μL using Growth Media (DMEM without phenol red, 1% L-Glut, 1% Penn/Strep, 1% nonessential amino acids, 10% heat-inactivated FBS). 2-fold serial dilutions of control and test compounds are added to the wells in duplicate in a total volume of 25 μL. Viral stock is then added to the wells at a multiplicity of infection (MOI) of 0.1 in a volume of 25 μL, bringing the total volume of each well to 100 μL. The MOI is calculated using the PFU/mL, or TCID50 if unavailable. Each 96-well plate has a control column of 6 wells with cells and virus but no compound (negative control, max CPE), a column with cells but no compound or virus (positive control, minimum CPE), and a column with no cells or virus or compound (background plate/reagent control). The control wells with cells but no virus are given an additional 25 μL of growth media containing an equal quantity of sucrose as those wells receiving the viral stock in order to keep consistent in media and volume conditions. The outer wells of the plate are filled with 125 μL of moat media (DMEM, 100 Penn/Strep) to act as a thermal and evaporative moat around the test wells. Following a 5-day incubation period, the plates are read using ATPlite (50 uL added per well), which quantifies the amount of ATP (a measure of cell health) present in each well. Assay plates are read using the Envision luminometer. […] EC50 ranges are as follows: A<0.01 μM; B 0.01-0.05 μM; C>0.05 μM.

EC50 [nM] | SMILES
< 10 | COc1cc(C(=O)NC[C@@](O)(c2ccccc2)c2cc(C(C)(C)O)c(F)c(-c3ccc4c(c3Cl)OC(F)(F)O4)n2)cc2cn(C3CC3)nc12 [Example 74]
< 10 | COc1cc(C(=O)NC[C@](O)(c2cc(C3(C(N)=O)CC3)cc(-c3ccc(F)c(Cl)c3F)n2)C2CC2)cc2cn(C3CC3)nc12 (single isomer, unassigned) [Example 26]
< 10 | COc1cc(C(=O)NC[C@@](O)(c2ccccc2)c2nc(-c3cc(Cl)c(F)cc3F)c(F)c(C(C)(C)O)c2F)cc2cn(C3CC3)nc12 [Example 127]
> 50 | CC(C)(O)c1cc([C@@](O)(CNC(=O)c2cc(F)c3nn(C(F)F)cc3c2)C2CC2)nc(-c2ccc(F)cc2)c1F (single isomer, unassigned) [Example 7]
< 10 | [2H]C([2H])([2H])C(O)(c1cc([C@@](O)(CNC(=O)c2cc(OC)c3nn(C4CC4)cc3c2)c2ccccc2)nc(-c2cc(Cl)c(F)cc2F)c1F)C([2H])([2H])[2H] [Example 183]
< 10 | COc1cc(C(=O)NC[C@@](O)(c2ccccc2)c2cc(C(C)(C)O)c(F)c(-c3ccc(F)c(Cl)c3F)n2)cc2cn(C3CC3)nc12 [Example 123]
< 10 | COc1cc(C(=O)NC[C@@](O)(c2ccccc2)c2cc(C(C)(C)O)c(Cl)c(-c3ccc4c(c3Cl)OC(F)(F)O4)n2)cc2cn(C3CC3)nc12 [Example 136]
10 to 50 | COc1cc(C(=O)NC[C@](O)(c2cc(C(C)(C)F)c(F)c(-c3cc(Cl)c(F)cc3F)n2)C2CC2)cc2cn(C3CC3)nc12 [Example 177]
< 10 | COc1cc(C(=O)NC[C@](O)(c2cc(C3(O)CC3)c(F)c(-c3ccc(F)cc3)n2)C2CC2)cc2cn(C3CC3)nc12 (single isomer, unassigned) [Example 50]
< 10 | CC(C)(O)c1cc([C@@](O)(CNC(=O)c2cc(Cl)c3nn(C4CC4)cc3c2)C2CC2)nc(-c2ccc(F)cc2)c1F [Example 6]
< 10 | COc1cc(C(=O)NC[C@](O)(c2cc(C(C)(C)O)c(F)c(-c3ccc(F)cc3)n2)C2CC2)cc2cc(C3CC3)nn12 (single isomer, unassigned) [Example 8]
10 to 50 | COc1cc(C(=O)NC[C@@](O)(c2ccccc2)c2cc(C(N)=O)c(F)c(-c3cc(Cl)c(F)cc3F)n2)cc2cn(C3CC3)nc12 [Example 189]
< 10 | Cc1nc2c(OC3CC3)cc(C(=O)NC[C@](O)(c3cc(C4(O)CC4)c(F)c(-c4ccc(F)cc4)n3)C3CC3)cc2cc1Cl (single isomer, unassigned) [Example 49]
< 10 | Cc1nc2c(OC(F)F)cc(C(=O)NC[C@](O)(c3cc(C(C)(C)O)c(F)c(-c4cc(Cl)c(F)cc4F)n3)C3CC3)cc2cc1Br [Example 59]
< 10 | [2H]C([2H])([2H])C(O)(c1cc([C@@](O)(CNC(=O)c2cc(OC)n3nc(C4CC4)cc3c2)c2ccccc2)nc(-c2cc(Cl)c(F)cc2F)c1F)C([2H])([2H])[2H] [Example 184]
< 10 | COc1cc(C(=O)NC[C@@](O)(c2ccccc2)c2cc(C(C)(C)O)c(F)c(-c3cc(F)c(F)cc3F)n2)cc2cn(C3CC3)nc12 [Example 86]
10 to 50 | COc1cc(C(=O)NC[C@](O)(c2cc(C3(C(N)=O)CC3)c(F)c(-c3ccc(F)c(Cl)c3F)n2)C2CC2)cc2cc(Cl)c(C)nc12 (single isomer, unassigned) [Example 23]
10 to 50 | COc1cc(C(=O)NC[C@](O)(c2cc(C3(C#N)CC3)c(F)c(-c3cc(Cl)c(F)cc3F)n2)C2CC2)cc2cn(C(F)F)nc12 [Example 10]
